The text below walks through data of patent publication US20220315554A1, “COMPOUNDS COMPRISING A […] LIGAND AND USE THEREOF” (priority 2019, published 2022).

Numbered stars: 1 amine (or outer) side, 2 acyl side, 3 side chain; on linkers, the order of the positions; unused ones are H or OH. Bridge positions count the residues as written; N and C are the ends. Square brackets hold non-standard residues; d marks the D form. Peptide text beside a SMILES is read from it. * marks the point of attachment. TBMB(SCH2CH2NH-DOTA) = O=C(O)CN1CCN(CC(=O)O)CCN(CC(=O)NCCSCc2cc(C[*:1])cc(C[*:2])c2)CCN(CC(=O)O)CC1; X5 = O=C(O)CN1CCN(CC(=O)O)CCN(CC(=O)NCCSCc2cc(CSC[C@@H](CO)N[*:2])cc(C[*:1])c2)CCN(CC(=O)O)CC1; NH(CH2)3NH(O2Oc(DOTA)) = O=C(O)CN1CCN(CC(=O)O)CCN(CC(=O)NCCOCCOCC(=O)NCCCN*)CCN(CC(=O)O)CC1; NH(CH2)3NHDOTA = O=C(O)CN1CCN(CC(=O)O)CCN(CC(=O)NCCCN*)CCN(CC(=O)O)CC1; Pyridine(2,6-diCH2) = c1cc(C[*:1])nc(C[*:2])c1; Phe(2-CF3) = N[C@@H](Cc1ccccc1C(F)(F)F)C(=O)O; Pyridine(3,5-bisCH2) = c1ncc(C[*:2])cc1C[*:1]; mXylylene = c1cc(C[*:1])cc(C[*:2])c1; Octanoyl = CCCCCCCC(=O)*; Hexanoyl = CCCCCC(=O)*; CO = O=C([*:1])[*:2]; NHPentyl = CCCCCN*; Sar = CNCC(=O)O

The target of one assay is T1, Human recombinant FAP (Homo sapiens, UniProt Q12884).
T1 sequence (Q12884 1-760): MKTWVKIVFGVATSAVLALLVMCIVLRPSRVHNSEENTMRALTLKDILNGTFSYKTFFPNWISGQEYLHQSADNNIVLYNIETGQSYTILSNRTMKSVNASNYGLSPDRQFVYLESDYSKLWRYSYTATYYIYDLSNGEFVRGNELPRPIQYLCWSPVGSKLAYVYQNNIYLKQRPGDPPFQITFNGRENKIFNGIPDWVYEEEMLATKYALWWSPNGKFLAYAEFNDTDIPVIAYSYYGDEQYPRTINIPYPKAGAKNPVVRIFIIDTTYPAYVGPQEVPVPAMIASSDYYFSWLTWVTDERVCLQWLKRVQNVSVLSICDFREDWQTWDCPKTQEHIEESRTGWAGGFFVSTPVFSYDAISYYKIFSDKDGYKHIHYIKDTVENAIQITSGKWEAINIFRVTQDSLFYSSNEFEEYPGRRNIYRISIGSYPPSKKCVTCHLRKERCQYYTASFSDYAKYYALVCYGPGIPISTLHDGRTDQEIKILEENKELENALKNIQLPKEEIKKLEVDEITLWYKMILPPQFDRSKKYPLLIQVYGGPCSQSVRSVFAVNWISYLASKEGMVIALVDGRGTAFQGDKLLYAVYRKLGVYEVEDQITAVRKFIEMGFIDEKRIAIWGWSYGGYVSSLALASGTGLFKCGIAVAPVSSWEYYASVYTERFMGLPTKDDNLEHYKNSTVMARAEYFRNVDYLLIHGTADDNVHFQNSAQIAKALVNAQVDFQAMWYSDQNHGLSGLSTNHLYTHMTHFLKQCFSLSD
In words: FRET-based FAP protease activity assay. Format: biochemical. Set-up: purchased R&D systems 3715-SE. As to conditions: pIC50 Category (Activity), FRET substrate, 37° C.

The target in assay [1] is T2, FAP-expressing human WI-38 fibroblasts (Homo sapiens, UniProt Q12884).
T2 construct: FAP-expressing human WI-38 fibroblasts (ECACC) were cultured in EMEM; host or cells: WI-38 human fibroblasts
T2 sequence (Q12884 1-760): T1 sequence (Q12884 1-760)
The assay can be described thus: Competitive FACS binding assay. The following applies: competition with 3 nM Cy5-labeled compound, 4° C., 1 hour; for IC50: pIC50 Category (FACS). As to the method:
Cells were analyzed in an Attune NxT flow cytometer. […]
(Flow cytometry measures light scatter and fluorescence of single cells or particles in a stream.)

By IC50 is commonly meant the concentration needed to halve the response being measured. As to `CCCCCC(=O)N[C@H]1CSCc2cccc(c2)CSC[C@@H](C(N)=O)NC(=O)[C@H](Cc2c[nH]c3ccccc23)NC(=O)[C@H](CCC(N)=O)NC(=O)[C@H]([C@@H](C)O)NC(=O)[C@@H]2CCCN2C(=O)[C@@H]2CCCN2C1=O` [3BP-3408, Hex-[Cys(3MeBn)-Pro-Pro-Thr-Gln-Trp-Cys]-NH2] (Hexanoyl-CPPTQWC-NH2; linker 1-7 via mXylylene), the IC50 (on Human recombinant FAP (recombinant human FAP); in assay [1] (WI-38 fibroblasts)) was 10 to 79.4 nM in each case.
As for `CCCCCC(=O)N[C@H]1CSCc2cccc(c2)CSC[C@@H](C(=O)N[C@@H](CC(=O)O)C(N)=O)NC(=O)[C@H](Cc2ccccc2C(F)(F)F)NC(=O)[C@H](CCC(N)=O)NC(=O)[C@H]([C@@H](C)O)NC(=O)[C@@H]2CCCN2C(=O)[C@@H]2CCCN2C1=O` [3BP-3409, Hex-[Cys(3MeBn)-Pro-Pro-Thr-Gln-Otf-Cys]-NH2] (Hexanoyl-CPPTQ[Phe(2-CF3)]CD-NH2; linker 1-7 via mXylylene), the IC50 is less than 10 nM at Human recombinant FAP (recombinant human FAP) and 10 to 79.4 nM in assay [1] (WI-38 fibroblasts).
Turning to `CCCCCCCC(=O)N[C@H]1CSCc2cccc(c2)CSC[C@@H](C(=O)N[C@@H](CC(=O)O)C(N)=O)NC(=O)[C@H](Cc2ccccc2)NC(=O)[C@H](CCC(N)=O)NC(=O)[C@H]([C@@H](C)O)NC(=O)[C@@H]2CCCN2C(=O)[C@@H]2CCCN2C1=O` [3BP-3417, Oct-[Cys(3MeBn)-Pro-Pro-Thr-Gln-Phe-Cys]-Asp-NH2] (Octanoyl-CPPTQFCD-NH2; linker 1-7 via mXylylene), the half-inhibitory concentration (IC50) (on Human recombinant FAP (recombinant human FAP); in assay [1] (WI-38 fibroblasts)) was 10 to 79.4 nM each time.
Consider `CCCCCNC(=O)N[C@H]1CSCc2cccc(c2)CSC[C@@H](C(=O)N[C@@H](CC(=O)O)C(N)=O)NC(=O)[C@H](Cc2ccccc2)NC(=O)[C@H](CCC(N)=O)NC(=O)[C@H]([C@@H](C)O)NC(=O)[C@@H]2CCCN2C(=O)[C@@H]2CCCN2C1=O` [3BP-3425, PentylNH-urea-[Cys(3MeBn)-Pro-Pro-Thr-Gln-Phe-Cys]-Asp-NH2] ({NHPentyl-CO}-CPPTQFCD-NH2; linker 1-7 via mXylylene), for which the results for the 50% inhibitory concentration (IC50) (on Human recombinant FAP (recombinant human FAP); in assay [1] (WI-38 fibroblasts)) were less than 10 nM and 10 to 79.4 nM, respectively.
With `CCCCCC(=O)N[C@H]1CSCc2cccc(c2)CSC[C@@H](C(=O)N[C@@H](CC(=O)O)C(N)=O)NC(=O)[C@H](Cc2ccccc2)NC(=O)[C@H](CCC(=O)NCCCNC(=O)CN2CCN(CC(=O)O)CCN(CC(=O)O)CCN(CC(=O)O)CC2)NC(=O)[C@H]([C@@H](C)O)NC(=O)[C@@H]2CCCN2C(=O)[C@@H]2CCCN2C1=O` [3BP-3472, Hex-[Cys(3MeBn)-Pro-Pro-Thr-Glu(NH-Apr-DOTA')-Phe-Cys]-Asp-NH2] (Hexanoyl-CPPTE(NH(CH2)3NHDOTA)FCD-NH2; linker 1-7 via mXylylene), the IC50 (on Human recombinant FAP (recombinant human FAP); in assay [1] (WI-38 fibroblasts)) was greater than 1000 nM throughout.
With `CCCCCC(=O)N[C@H]1CSCc2cccc(c2)CSC[C@@H](C(=O)N[C@@H](CC(=O)O)C(N)=O)NC(=O)[C@H](Cc2ccccc2)NC(=O)[C@H](CCC(=O)NCCCNC(=O)COCCOCCNC(=O)CN2CCN(CC(=O)O)CCN(CC(=O)O)CCN(CC(=O)O)CC2)NC(=O)[C@H]([C@@H](C)O)NC(=O)[C@@H]2CCCN2C(=O)[C@@H]2CCCN2C1=O` [3BP-3473, Hex-[Cys(3MeBn)-Pro-Pro-Thr-Glu(NH-Apr-O2O-DOTA')-Phe-Cys]-Asp-NH2] (Hexanoyl-CPPTE(NH(CH2)3NH(O2Oc(DOTA)))FCD-NH2; linker 1-7 via mXylylene), the IC50 (at Human recombinant FAP (recombinant human FAP); in assay [1] (WI-38 fibroblasts)) was 100 to 794 nM in each case.
On to `CCCCCC(=O)N[C@H]1CSCc2cccc(n2)CSC[C@@H](C(=O)N[C@@H](CC(=O)O)C(N)=O)NC(=O)[C@H](Cc2ccccc2)NC(=O)[C@H](CCC(N)=O)NC(=O)[C@H]([C@@H](C)O)NC(=O)[C@@H]2CCCN2C(=O)[C@@H]2CCCN2C1=O` [3BP-3518, Hex-[Cys(2Lut)-Pro-Pro-Thr-Gln-Phe-Cys]-Asp-NH2] (Hexanoyl-CPPTQFCD-NH2; linker 1-7 via Pyridine(2,6-diCH2)), for which the IC50 (on Human recombinant FAP (recombinant human FAP); in assay [1] (WI-38 fibroblasts)) was less than 10 nM throughout.
Consider `CCCCCC(=O)N[C@H]1CSCc2cncc(c2)CSC[C@@H](C(=O)N[C@@H](CC(=O)O)C(N)=O)NC(=O)[C@H](Cc2ccccc2)NC(=O)[C@H](CCC(N)=O)NC(=O)[C@H]([C@@H](C)O)NC(=O)[C@@H]2CCCN2C(=O)[C@@H]2CCCN2C1=O` [3BP-3519, Hex-[Cys(3Lut)-Pro-Pro-Thr-Gln-Phe-Cys]-Asp-NH2] (Hexanoyl-CPPTQFCD-NH2; linker 1-7 via Pyridine(3,5-bisCH2)), for which the IC50 (at Human recombinant FAP (recombinant human FAP); in assay [1] (WI-38 fibroblasts)) was less than 10 nM in each case.
As for `CCCCCC(=O)N[C@H]1CSCc2cc(cc(CN3CCN(C(=O)CN4CCN5CCN6CCN(CC4)CC(=O)[O][Eu]([O]C(=O)C6)[O]C(=O)C5)CC3)c2)CSC[C@@H](C(=O)N[C@@H](CC(=O)O)C(N)=O)NC(=O)[C@H](Cc2ccccc2)NC(=O)[C@H](CCC(N)=O)NC(=O)[C@H]([C@@H](C)O)NC(=O)[C@@H]2CCCN2C(=O)[C@@H]2CCCN2C1` [3BP-3661, Europium-Complex of Hex-[Cys(tMeBn(DOTA-PP))-Pro-Pro-Thr-Gln-Phe-Cys]-Asp-NH2], the IC50 (at Human recombinant FAP; in assay [1]) was less than 10 nM each time.
As to `CCCCCC(=O)N[C@H]1CSCc2cc(CSCCNC(=O)CN3CCN4CCN5CCN(CC3)CC(=O)[O][Eu]([O]C(=O)C4)[O]C(=O)C5)cc(c2)CSC[C@@H](C(=O)O)NC(=O)[C@H](Cc2ccccc2)NC(=O)[C@H](CCC(N)=O)NC(=O)[C@H]([C@@H](C)O)NC(=O)[C@@H]2CCCN2C(=O)[C@@H]2CCCN2C1` [3BP-3662, Europium-Complex of Hex-[Cys(tMeBn(DOTA-AET))-Pro-Pro-Thr-Gln-Phe-Cys]-OH], the IC50 (on Human recombinant FAP; in assay [1]) was less than 10 nM throughout.
Take `CCCCCC(=O)N[C@H]1CSCc2cc(CSCCNC(=O)CN3CCN(CC(=O)O)CCN(CC(=O)O)CCN(CC(=O)O)CC3)cc(c2)CSC[C@@H](C(=O)O)NC(=O)[C@H](Cc2cccnc2)NC(=O)[C@H](CCC(N)=O)NC(=O)[C@H]([C@@H](C)O)NC(=O)[C@@H]2CCCN2C(=O)[C@@H]2CCCN2C1` [3BP-3664, Hex-[Cys(tMeBn(DOTA-AET))-Pro-Pro-Thr-Gln-Mpa-Cys]-OH]: the IC50 (at Human recombinant FAP; in assay [1]) was less than 10 nM in each case.
`CCCCCS(=O)(=O)N[C@H]1CSCc2cc(CSCCNC(=O)CN3CCN(CC(=O)O)CCN(CC(=O)O)CCN(CC(=O)O)CC3)cc(c2)CSC[C@@H](C(=O)O)NC(=O)[C@H](Cc2ccccc2)NC(=O)[C@H](CCC(N)=O)NC(=O)[C@H]([C@@H](C)O)NC(=O)[C@@H]2CCCN2C(=O)[C@@H]2CCCN2C1=O` [3BP-3691, Pentyl-SO2-[Cys(tMeBn(DOTA-AET))-Pro-Pro-Thr-Glu-Phe-Cys]-OH]: the half-inhibitory concentration (IC50) at Human recombinant FAP is 10 to 79.4 nM. Besides, in assay [1], the “pIC50 Category (FACS)” value is “A (pIC50 values >8.0)”.
Regarding `CCCCCC(=O)N[C@H]1CSCc2cc(CSCCNC(=O)CN3CCN(CC(=O)O)CCN(CC(=O)O)CCN(CC(=O)O)CC3)cc(c2)CSC[C@@H](C(N)=O)NC(=O)[C@H](Cc2ccccc2)NC(=O)[C@H](CCC(N)=O)NC(=O)[C@H]([C@@H](C)O)NC(=O)[C@@H]2CCCN2C(=O)CN(C)C1=O` [3BP-3744, Hex-[Cys(tMeBn(DOTA-AET))-Nmg-Pro-Thr-Gln-Phe-Cys]-NH2] (Hexanoyl-C[Sar]PTQFC-NH2; linker 1-7 via TBMB(SCH2CH2NH-DOTA)), the IC50 (on Human recombinant FAP; in assay [1]) was less than 10 nM each time.
Turning to `CCCCCC(=O)N[C@H]1CSCc2cc(CSCCNC(=O)CN3CCN(CC(=O)O)CCN(CC(=O)O)CCN(CC(=O)O)CC3)cc(c2)CSC[C@@H](CO)NC(=O)[C@H](Cc2ccccc2)NC(=O)[C@H](CCC(N)=O)NC(=O)[C@H]([C@@H](C)O)NC(=O)[C@@H]2CCCN2C(=O)[C@@H]2CCCN2C1=O` [3BP-3762, Hex-[Cys(tMeBn(DOTA-AET))-Pro-Pro-Thr-Gln-Phe-Cysol]] (Hexanoyl-CPPTQF; linker 1-C via X5), the IC50 on Human recombinant FAP is 100 to 794 nM; in assay [1] it was greater than 1000 nM.
As to `CCCCCC(=O)N[C@H]1CSCc2cc(CSCCNC(=O)CN3CCN(CC(=O)O)CCN(CC(=O)O)CCN(CC(=O)O)CC3)cc(c2)CSC[C@@H](CO)NC(=O)[C@H](Cc2ccccc2)NC(=O)[C@H](CCC(N)=O)NC(=O)[C@H]([C@@H](C)O)NC(=O)[C@@H]2CCCN2C(=O)[C@@H]2CCCN2C1=O` [3BP-3767, Hex-[Cys(tMeBn(DOTA-AET))-Pro-Pro-Thr-Gln-Phe-Cysol]] (Hexanoyl-CPPTQF; linker 1-C via X5), the IC50 (on Human recombinant FAP; in assay [1]) was less than 10 nM each time.
